Experimental data from patent EP0672419A1, “BLOOD PRESSURE REGULATOR” (Asahi Kasei Kogyo Kabushiki Kaisha, priority 1991, dated 1995).

Key:
[1] = system: adult mongrel dogs; experiment: Induced hypotension in ten halothane-anesthetized dogs, average arterial blood pressure kept at 60 mmHg for 60 min (Example 6); assay type: in vivo, dog; settings: mean ± S.D.
Procedure: Adult mongrel dog, mean body weight 12.7 ± 3.1 kg, was anesthesized with pentobarbital 25 mg/kg, intratarcheally cannulated and maintained anesthetic condition by 0.87% halothane-oxygen (1 MAC, minimum anesthetic concentration). Respiration was controlled, by using respirator (Harvard Corp., Model 613E ) at Paco₂ 35±5 mmHg.
Catheters were introduced to right femoral vein and artery for monitering arterial blood pressure, arterial blood gas analysis and infusion, and left cardiac catheter was introduced to left femoral […] to monitor left ventricular pressure. The changes in left ventricular pressure were differentiated continuously using a pressure processor (Nihon Koden Co., EQ-601G) to measure a maximum left ventricular systolic ratio (LV dp/dt max). The active ingredient of the present invention was administered to left femoral vein. Pulmonary arterial catheter (7F, Swan-Ganz® catheter) was introduced through right external jugular vein to monitor pulmonary artery pressure (PAP), paulmonary arterial wedge pressure (pulmonary capillary wedge pressure, PCWP) and cardiac output (CO). Pressure was monitored by using disporsable pressure monitoring kit (Gould Corp.), and electrocardiogram, arteriala pressure, left ventricle pressure (LVP) and maximum left ventricular systolic ratio (LV dp/dt max) were monitored by polygraph (Nihon Koden Co.) . Cardiac output (CO) was measured by thermal dilution method using cardiac output monitor (Nihon Koden Co Model MTC6210). Blood gas analysis was made by using automatic blood gas analyser (Radiometer Corp. ABL3). Mean artery pressure (MAP), cardiac index(CI) stroke volume index (SI), systemic vascular resistance (SVR), pulmonary vascular resistance (PVR), left ventricle stroke work index (LVSWI) and coronary perfusion pressure (CPP) were calculated by standard calculation equations, respectively.
To maintain low blood pressure, the active ingredient was intraveneously administered for 60 minutes with maintaining maximum dose at 40 µg/kg and adjusting to maintain mean arteraial pressure at 50 mmHg. Physiological saline was used for maintenance infusion and administered in combination with the active ingredient at 7 ml/kg/hr. At blood sampling two fold volume of hydroxyethylstarch (6-HES) was supplementary administered. Body temperature was maintained at 37 ± 1°C by covering with blanket.
Example 5 was repeated by substantially almost same manner using ten adult mongrel dogs, mean body weight 14.7±2.1 kg, applying same anesthetic condition with maintaining artificially hypotensive with average arterial blood pressure at 60 mmHg for 60 min., and administering the active ingredient desalanyl-deamino-c-CGRP.
A value at time more than 60 minutes passed after completing the start of the experiment and stabilizing a depth of anesthesia and blood flow, was set as control (S₁). Monitorings were performed at 30 min. and 60 min. under reduced blood pressure in induced hypotension, and at 10 min. and 30 min. after terminating the reduced blood pressure in induced hypotension (after stopping administration), for totally five points of time.
Results are shown by mean ± S.D.
Amount of the active ingredient for maintaining average arterial blood pressure at 60 mmHg for 60 minutes was 5 µg-115 µg/kg.

[2] = system: adult mongrel dogs; experiment: Phenylephrine-induced hypertension in four anesthetized dogs (Example 8); assay type: in vivo, dog; settings: 10 µg/kg/hr on top of phenylephrine 10 µg/kg/min
Procedure: Example 6 was repeated by substantially almost same manner using four adult mongrel dogs, mean body weight 12.3±3.0 kg, applying same anesthetic condition. After setting up the experiment at more than 60 minutes passing and confirming to stabilize the depth of anesthesia and blood flow, phenylephrine (hypertensor) 10 µg/kg/min was administered.
Further after 10 minutes passed, the active ingredient, desalanyl-deamino-c-CGRP 10 µg/kg/hr was administered and at 10 min. and 20 min. after administration of the active ingredient, heart rate (HR) and mean a artery pressure (MAP) were measured.

[3] = after terminating reduced blood pressure 10 min.
[4] = after terminating reduced blood pressure 30 min.
[5] = reduced blood pressure 30 min., MAP kept at 60 mmHg
[6] = reduced blood pressure 60 min., MAP kept at 60 mmHg
[7] = after administ. of CGRP 10 min(20min)
[8] = after administ. of CGRP 20 min(30min)

Substance: desalanyl-deamino-c-CGRP
- CI: Cardiac index [1, 3]: 4.025±0.685 ** 1/min/m²
- CO: Cardiac output [1, 3]: 2.751±0.438 * 1/min
- CPP: Coronary perfusion pressure [1, 3]: 50.5±5.5 mmHg
- CVP: Central venous pressure [1, 3]: 2.9±1.5 mmHg
- DAP: Diastolic artery pressure [1, 3]: 59.2±5.1 mmHg
- DPAP: Diastolic pulmonary artery pressure [1, 3]: 11.3±5.2 mmHg
- EtCO₂: Expiration terminal CO₂ pressure [1, 3]: 39.5±5.8 mmHg
- HR: Heart rate [1, 3]: 158.8±33.8 beat/min
- LV dp/dt max: maximum left ventricular systolic ratio [1, 3]: 3370.0±783.2 mmHg/sec
- LVEP: Left ventricle end pressure [1, 3]: 0.1±0.3 mmHg
- LVP: Left ventricle pressure [1, 3]: 119.5±16.3 mmHg
- LVSWI: Left ventricle stroke work index [1, 3]: 23.970±6.998 g.m/beat/m²
- MAP: Mean artery pressure [1, 3]: 75.7±4.3 mmHg
- MPAP: Mean pulmonary artery pressure [1, 3]: 18.3±6.0 mmHg
- PCWP: Pulmonary capillary wedge pressure [1, 3]: 9.2±4.1 mmHg
- PVR: Pulmonary vascular resistance [1, 3]: 273.30±100.09 dynes · sec/cm⁵
- RPP: Rate pressure products [1, 3]: 14920.0±3480.0 mmHg.beat/min
- RVSWI: Right ventricle stroke work index [1, 3]: 5.209±1.501 g.m/beat/m²
- SAP: Systolic artery pressure [1, 3]: 94.4±7.2 mmHg
- SI: Stroke index [1, 3]: 26.300±6.720 ml/HR/m²
- SPAP: Systolic pulmonary artery pressure [1, 3]: 26.8±7.2 mmHg
- SV: Stroke volumes [1, 3]: 18.2 ± 5.63 mL/beat
- SVR: Systemic vascular resistance [1, 3]: 2162.0±419.2 dynes · sec/cm⁵
- CI: Cardiac index [1, 4]: 3.638±0.587 1/min/m²
- CO: Cardiac output [1, 4]: 2.487 ± 0.378 min⁻¹
- CPP: Coronary perfusion pressure [1, 4]: 63.5±5.3 mmHg
- CVP: Central venous pressure [1, 4]: 3.2±1.1 mmHg
- DAP: Diastolic artery pressure [1, 4]: 74.1±4.7 mmHg
- DPAP: Diastolic pulmonary artery pressure [1, 4]: 11.3±5.4 mmHg
- EtCO₂: Expiration terminal CO₂ pressure [1, 4]: 39.3±5.9 mmHg
- HR: Heart rate [1, 4]: 151.6±27.9 beat/min
- LV dp/dt max: maximum left ventricular systolic ratio [1, 4]: 3220.0±708.4 mmHg/sec
- LVEP: Left ventricle end pressure [1, 4]: 0.0±0.0 mmHg
- LVP: Left ventricle pressure [1, 4]: 132.3±20.0 mmHg
- LVSWI: Left ventricle stroke work index [1, 4]: 27.680±7.370 g.m/beat/m²
- MAP: Mean artery pressure [1, 4]: 92.8±6.3 mmHg
- MPAP: Mean pulmonary artery pressure [1, 4]: 18.7±6.3 mmHg
- PCWP: Pulmonary capillary wedge pressure [1, 4]: 10.6±4.5 mmHg
- PVR: Pulmonary vascular resistance [1, 4]: 269.10±109.58 dynes · sec/cm⁵
- RPP: Rate pressure products [1, 4]: 18100.0±3938.4 mmHg.beat/min
- RVSWI: Right ventricle stroke work index [1, 4]: 4.882±1.138 g.m/beat/m²
- SAP: Systolic artery pressure [1, 4]: 119.4±10.1 mmHg
- SI: Stroke index [1, 4]: 24.760±6.720 ml/HR/m²
- SPAP: Systolic pulmonary artery pressure [1, 4]: 27.4±7.2 mmHg
- SV: Stroke volumes [1, 4]: 17 ± 5.07 mL/beat
- SVR: Systemic vascular resistance [1, 4]: 2961.0±700.9 dynes · sec/cm⁵
- CI: Cardiac index [1, 5]: 3.418±0.692 1/min/m²
- CO: Cardiac output [1, 5]: 2.348 ± 0.528 min⁻¹
- CPP: Coronary perfusion pressure [1, 5]: 38.3±4.5 mmHg
- CVP: Central venous pressure [1, 5]: 2.5±1.1 mmHg
- DAP: Diastolic artery pressure [1, 5]: 47.3±2.8 mmHg
- DPAP: Diastolic pulmonary artery pressure [1, 5]: 9.9±4.0 mmHg
- EtCO₂: Expiration terminal CO₂ pressure [1, 5]: 38.5±5.6 mmHg
- HR: Heart rate [1, 5]: 149.3±31.7 beat/min
- LV dp/dt max: maximum left ventricular systolic ratio [1, 5]: 3070.0±771.8 mmHg/sec
- LVEP: Left ventricle end pressure [1, 5]: 0.0±0.0 mmHg
- LVP: Left ventricle pressure [1, 5]: 102.7±14.1 mmHg
- LVSWI: Left ventricle stroke work index [1, 5]: 16.906±5.750 g.m/beat/m²
- MAP: Mean artery pressure [1, 5]: 60.4±0.7 mmHg
- MPAP: Mean pulmonary artery pressure [1, 5]: 15.6±5.3 mmHg
- PCWP: Pulmonary capillary wedge pressure [1, 5]: 9.0±4.0 mmHg
- PVR: Pulmonary vascular resistance [1, 5]: 231.10±80.62 dynes · sec/cm⁵
- RPP: Rate pressure products [1, 5]: 11357.0±2260.5 mmHg.beat/min
- RVSWI: Right ventricle stroke work index [1, 5]: 3.979±1.239 g.m/beat/m²
- SAP: Systolic artery pressure [1, 5]: 76.5±4.8 mmHg
- SI: Stroke index [1, 5]: 23.810±6.952 ml/HR/m²
- SPAP: Systolic pulmonary artery pressure [1, 5]: 23.0±6.2 mmHg
- SV: Stroke volumes [1, 5]: 16.5 ± 5.78 mL/beat
- SVR: Systemic vascular resistance [1, 5]: 2054.0±455.6 dynes · sec/cm⁵
- CI: Cardiac index [1, 6]: 4.006 ±0.771 ** 1/min/m²
- CO: Cardiac output [1, 6]: 2.739 ±0.518 * 1/min
- CPP: Coronary perfusion pressure [1, 6]: 38.3±4.9 mmHg
- CVP: Central venous pressure [1, 6]: 2.2±1.2 mmHg
- DAP: Diastolic artery pressure [1, 6]: 47.7±2.6 mmHg
- DPAP: Diastolic pulmonary artery pressure [1, 6]: 11.3±4.9 mmHg
- EtCO₂: Expiration terminal CO₂ pressure [1, 6]: 39.8±6.9 mmHg
- HR: Heart rate [1, 6]: 154.3 ± 33.8 beat/min
- LV dp/dt max: maximum left ventricular systolic ratio [1, 6]: 3210.0±749.0 mmHg/sec
- LVEP: Left ventricle end pressure [1, 6]: 0.0±0.0 mmHg
- LVP: Left ventricle pressure [1, 6]: 104.7±16.3 mmHg
- LVSWI: Left ventricle stroke work index [1, 6]: 18.949±6.280 g.m/beat/m²
- MAP: Mean artery pressure [1, 6]: 60.1±0.9 mmHg
- MPAP: Mean pulmonary artery pressure [1, 6]: 17.7±5.9 mmHg
- PCWP: Pulmonary capillary wedge pressure [1, 6]: 9.4±4.7 mmHg
- PVR: Pulmonary vascular resistance [1, 6]: 251.20±97.14 dynes · sec/cm⁵
- RPP: Rate pressure products [1, 6]: 11462.0±2765.1 mmHg.beat/min
- RVSWI: Right ventricle stroke work index [1, 6]: 5.380±1.747 g.m/beat/m²
- SAP: Systolic artery pressure [1, 6]: 74.4±4.9 mmHg
- SI: Stroke index [1, 6]: 27.030 ±7.664 ml/HR/m²
- SPAP: Systolic pulmonary artery pressure [1, 6]: 25.5±7.3 mmHg
- SV: Stroke volumes [1, 6]: 18.5 ± 5.94 mL/beat
- SVR: Systemic vascular resistance [1, 6]: 1748.0±409.1 dynes · sec/cm⁵
- HR: Heart rate [2, 7]: 103 beats/min
- MAP: Mean artery pressure [2, 7]: 104.8 ±2.7 mmHg
- HR: Heart rate [2, 8]: 104±2.8 beat/min
- MAP: Mean artery pressure [2, 8]: 184±4.9 mmHg
